Data from patent publication EP2363135B1, “Anti-jellyfish compositions” (Antonio Puig, S.A., priority 2010, dated 2011).
Like-named read-outs stand apart in the source and are kept apart here.

Assays:
Pelagia noctiluca = experiment: in vitro inhibition of cnidocyst discharge, physical contact with a gelatin probe; assay type: cell-based; conditions: 0.5 M in gelatin probe; for Discharged cnidocysts/mm^2 (%): control = 100; for Inhibition (%): versus control
Description: The efficacy of plant extracts and phytocompounds, in inhibiting cnidocyst discharge of Pelagia noctiluca (which is one of the most common species along the Mediterranean Sea) was evaluated by physical contact with a gelatin probe. Said probes, besides stimulating the cnidocyte battery, retained the different types of discharged cnidocysts that can have different sizes, thereby allowing a quantitative evaluation of the response.
Each gelatin probe was made coating one end of a 6 cm length of monofilament fishing line (1 mm diameter) with 25% (w/v) gelatin in deionized water and then placed in a humidified atmosphere during 30 minutes for gelatin solidification. The different substances to be tested were dissolved in deionized water at selected concentrations before the addition of gelatin: oat extract (Burgundi Cosmetics) and tea extract (Symrise lberica) were used at a final concentration of active agent of 0.025 % (w/v); dipotassium glycyrrhizate and hydroxytyrosol were used at a concentration of 0.5 M. Plain gelatin covered probes (no embebed active compound) were used as controls and represented maximum discharge figures.
After solidification, each gelatin probe was gently wiped across oral arms of Pelagia noctiluca 5 times from 1 to 5 seconds in the tanks. The probes were then placed in humidified atmosphere plates and observed under a steroemicroscope for cnidocyst quantification. Individual cnidocysts that had discharged into the gelatin probes were counted in 7 different fields of view and the mean value was calculated. Results are the average of triplicate probes.
An inhibitory effect was considered if the substance diminished the number of discharged nematocytes per mm^2 of gelatin probe as compared with controls.
The graphical representation of the interaction between two active compounds could be expressed as follows. […] The straight line connecting the effects of both substances on their own is the locus of points that will produce this effect in a simple additive combination, the additivity line.
FIG. 1 and FIG. 2 represent, respectively, the interaction between oat extract and lanthanum and tea extract and lanthanum in the inhibition of cnidocyst discharge. The number of discharged cnidocysts in Pelagia noctiluca was analysed for each combination of active agents by physical contact with a gelatin probe as described in Example 2. The doses of each of the constituents are referred as concentrations of active agent, i.e. of pure oat or green tea extract, and lanthanum cation.

[1] = tested on: in situ cnidocytes of Pelagia noctiluca (Scyphozoa); conditions: cited from earlier work

Compound	Discharged cnidocysts/mm^2 (%) (Pelagia noctiluca)	Inhibition (%) (Pelagia noctiluca)	cnidocyst discharge ([1]; oral arms previously treated with 20 µmol/L)	cnidocyst discharge ([1]; oral arms previously treated with 2 mmol/L)
OCCc1ccc(O)c(O)c1 [WHidroxytyrosol, hydroxytyrosol]	43,6%	-56,4%	–	–
[Gd+3] [Gd^3+, gadolinium]	–	–	the discharge was inhibited	–
[La+3] [La^3+, lanthanum]	–	–	–	the discharge was inhibited
CC1(C)[C@@H](O[C@H]2O[C@H](C(=O)O)[C@@H](O)[C@H](O)[C@H]2O[C@@H]2O[C@H](C(=O)O)[C@@H](O)[C@H](O)[C@H]2O)CC[C@]2(C)[C@H]3C(=O)C=C4[C@@H]5C[C@@](C)(C(=O)O)CC[C@]5(C)CC[C@@]4(C)[C@]3(C)CC[C@@H]12 [Dipotassium glycyrrhizate, dipotassium glycyrrhizate]	32,7%	-67,3%	–	–
